The values below are quoted from earlier work in patent publication US20040063167A1, “Minimising calibration problems of in vivo glucose sensors” (priority 2002, published 2004).

The subject of the series is animal, plant and bacterial cells in culture.

Each structure is given as a SMILES string. Where only a bound is given, the exact number is not on record here.

On to `OO` [H2O2, Hydrogen peroxide], for which the “levels of H2O2 that seem to have limited cytotoxicity” value (many cell types, "at or below about") was 20 to 50 µM. Also, for the setting “wide range of animal, plant and bacterial cells in culture, "usually"”, the “levels of H2O2 described as being cytotoxic” value is no less than 50 µM.
